In patent US20220288048A1, “PIMAVANSERIN FOR TREATING SCHIZOPHRENIA OR FOR TREATING PSYCHOSIS SECONDARY TO NEURODEGENERATIVE DISORDERS OR DEPRESSIVE DISORDER” (ACADIA Pharmaceuticals Inc., priority 2019, published 2022):
Entries after “also recorded” stand apart in the source; their conditions may differ.

Key:
[1] = system: adult schizophrenia patients; assay: 6-week adjunctive pimavanserin study: safety and adverse events; type: in vivo, human
Method: The effect of pimavanserin as an adjunctive treatment in adult schizophrenia patients with a persistent inadequate response (i.e., partial responders) to their existing antipsychotic therapy was tested. 396 patients with moderate-to-severe psychotic symptoms were randomized to receive either pimavanserin or placebo added to existing antipsychotic treatment.
Patients were administered a daily dose of pimavanserin or a placebo for six weeks. The dose started at 20 mg and could be adjusted to 34 mg or 10 mg between weeks 1 and 3. The majority of patients (56%) completed the study at the highest dose level.
The safety of the pimavanserin arm was similar to placebo, with no new signals observed. […] The overall number of SAEs and AEs leading to discontinuation was low. The most commonly reported AEs leading to discontinuation of treatment were from the psychiatric disorders system and seen in the active arm.

[2] = system: scPCP+ARS(2h) treated male C57BL/6J mice; assay: 10-min social interaction test in scPCP-treated mice given 2 h acute restraint stress (treatment-resistant model); type: in vivo; details: risperidone 0.2, olanzapine 1, aripiprazole 1 or pimavanserin 3 mg/kg ip alone, 45 min prior to test
Method: Briefly, mice were habituated to the test arena (i.e., the NOR box) for 30 minutes prior to the test day. Pairs of mice, unfamiliar to each other, received either the same treatment (e.g., vehicle and vehicle; N=10 pairs) or different treatments (e.g., vehicle; N=10 and phencyclidine (PCP) 10 mg/kg; N=10). After washout, they were placed in the test arena together for 10 minutes. A heavy object made of Plexiglas or metal was placed in the center of the test arena to quantify the time and nature of interaction of the test animals with an unfamiliar object or an unfamiliar animal. After the 10 min test phase, the object and the arena were cleaned with 70% ethanol to remove any olfactory trails. Behavior was recorded on video for subsequent blind scoring.
The following four behaviors were scored for each animal: • a) Sniffing: A normal mouse engages in sniffing the con-specific mouse's body, including the anogenital area • b) Following: A normal mouse pursues a con-specific mouse around the arena • c) Avoiding: A normal mouse avoids the con-specific mouse and move away from a pursuing mouse if approached • d) Object Exploration: A normal mouse explores the object that is placed in the center of the test arena.
Acute restraint stress (ARS) protocol: Mice were assigned to one of two groups: either the control group (non-stress) or the stress group. Generally, mice of the stress group were restrained in well-ventilated 50 mL tubes. After the restraint period of 1 or 2 hours, the mice were transferred into a clean animal housing cage for 1-hour interval and thereafter went through the first social interaction test (different mice are used to test different groups).
Treatment resistant animal model: To establish this model, Acute restraint stress (ARS) was added to scPCP treatment. Two groups (vehicle+ARS; scPCP+ARS) and their controls (vehicle+saline; scPCP+saline) were used. ARS was applied for 1 or 2 hours and tested on SI 1 hour post-ARS.
The behavioral assay, ARS protocol, and scPCP-treatment as described in Example 2 were used. To test the effect of atypical APD and pimavanserin, alone or as con-administration, in scPCP-treated mice (N=10 pairs of mice per group) given 2 h ARS, risperidone (“Risp”) was administered as 0.2 mg/kg or 0.4 mg/kg ip; olanzapine (“Olan”) as 1.0 mg/kg ip; aripiprazole (“Aripi”) as 1.0 mg/kg ip; and pimavanserin (“Pim”) as 3 mg/kg ip to scPCP+ARS(2h) treated male C57BL/6J mice 45 minutes prior to the commencement of the social interaction task in the 10 min social interaction test. Plasma levels of risperidone were measured using a Triple Quad 6500+ mass spectrometer.

[3] = system: subjects with schizophrenia who have predominant negative symptoms; assay: Phase 2, 26-week adjunctive pimavanserin study: safety; type: in vivo, human; details: 26-week study
Method: This study is conducted as a Phase 2, 26-week, randomized, double-blind, placebo-controlled, multicenter, multinational outpatient study in subjects with schizophrenia who have predominant negative symptoms while on adequate treatment with an antipsychotic. Schizophrenia is defined by the Diagnostic and Statistical Manual of Mental Disorders, Fifth Edition (DSM-5), confirmed by a customized module of the Structured Clinical Interview for DSM-5, Clinical Trials Version (SCID-5-CT). This study enrolls approximately 403 subjects with predominant negative symptoms of schizophrenia. In the study, patients were randomized to receive either pimavanserin or placebo added to their current background antipsychotic treatment for 26 weeks in duration. At baseline all patients were started on a daily dose of 20 mg of pimavanserin or placebo with dose adjustments allowed up to 34 mg or down to 10 mg during the first eight weeks of treatment. […]
Safety will be evaluated by analyses of adverse events, vital signs, ECGs, physical examination results, and clinical laboratory tests (including urinalysis), and the Abnormal Involuntary Movement Scale (AIMS), the Barnes Akathisia Rating Scale (BARS), the Simpson-Angus Extrapyramidal Side Effects Scale (SAS), and the Columbia Suicide Severity Rating Scale (C-SSRS).

## CC(C)COc1ccc(CNC(=O)N(Cc2ccc(F)cc2)C2CCN(C)CC2)cc1 [Pimavanserin, N-(4-Fluorophenylmethyl)-N-(1-methylpiperidin-4-yl)-N′-(4-(2-methylpropyloxy)phenylmethyl)carbamide]
[1]; 6-week study
  Patients who completed the study: Approximately 88%
  QT prolongation: Minimal QT prolongation
  Vital signs, weight, metabolic syndrome, and extrapyramidal symptoms compared to adjunctive placebo: did not result in clinically significant differences; also recorded: No effect was seen
[1]; Safety Analysis Set, N = 198
  Any Related Serious Treatment-Emergent Adverse Event, Events n: 2
  Any Related Serious Treatment-Emergent Adverse Event, Subjects (%): 0.5%
  Any Related Serious Treatment-Emergent Adverse Event, Subjects n: 1
  Any Related Treatment-Emergent Adverse Event, Events n: 46
  Any Related Treatment-Emergent Adverse Event, Subjects (%): 16.7%
  Any Related Treatment-Emergent Adverse Event, Subjects n: 33
  Any Serious Treatment-Emergent Adverse Event, Events n: 3
  Any Serious Treatment-Emergent Adverse Event, Subjects (%): 1.0%
  Any Serious Treatment-Emergent Adverse Event, Subjects n: 2
  Any Treatment-Emergent Adverse Event Leading to Discontinuation or Study Termination, Events n: 7
  Any Treatment-Emergent Adverse Event Leading to Discontinuation or Study Termination, Subjects (%): 2.5%
  Any Treatment-Emergent Adverse Event Leading to Discontinuation or Study Termination, Subjects n: 5
  Any Treatment-Emergent Adverse Event, Events n: 142
  Any Treatment-Emergent Adverse Event, Subjects (%): 40.4%
  Any Treatment-Emergent Adverse Event, Subjects n: 80
[1]; Safety Analysis Set, N = 198, listed as pimavanserin
  Any Serious Treatment-Emergent Adverse Event, Subjects (%): 1%
[1]; pimavanserin group, 6-week study
  Adverse events reported in at least 5% of patients: headache, somnolence, and insomnia
[2]
  Able to restore sniffing or decrease avoidance (SI deficit), drug alone: Neither; also recorded: ineffective
[3]
  Vital signs, weight, metabolic syndrome, and extrapyramidal symptoms compared to adjunctive placebo: did not result in clinically significant differences
[3]; adjunctive pimavanserin
  Rate of adverse events: 40%
